Experimental data from the supplement of paper PMC7840683.

System: HepaRG
Assay: LDH release cytotoxicity, % of total lysis control; higher = more cytotoxic
Conditions: 48 h
Procedure, shortened: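 Duplicate wells of single-lot HepaRG cells, grown on collagen I-coated 96-well plates, received eight-point half-log series of test chemicals with 100 µM as the top concentration. Exposure lasted 48 h in serum-free induction medium with 0.5% DMSO, while total lysis wells received 0.1% Triton X. Resorufin fluorescence (CytoTox-ONE, Tecan Safire) was used to quantify LDH leaked into 50 µL of spent medium. Values for percent cytotoxicity were normalized to on-plate vehicle and total lysis controls and averaged across the duplicates.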

C=CC1(C)OC(=O)N(c2cc(Cl)cc(Cl)c2)C1=O (centres undefined) [Vinclozolin]
Conditions | LDH release cytotoxicity [%]
0.031623 µM | -0.342
0.1 µM | -2.45
0.316228 µM | -2.11
1 µM | -1.77
3.16228 µM | -1.59
10 µM | -1.87
31.6228 µM | -1.19
100 µM | 0.481

N=C(N)c1ccc(OCCCCCOc2ccc(C(=N)N)cc2)cc1 [Pentamidine isethionate]
Conditions | LDH release cytotoxicity [%]
0.0276699 µM | -1.83
0.0875 µM | -2.81
0.276699 µM | -2.72
0.875 µM | -3.54
2.76699 µM | -2.52
8.75 µM | 19
27.6699 µM | 68.9
87.5 µM | 73.7

CC1CC(C)C(=O)C(C(O)CC2CC(=O)NC(=O)C2)C1 (centres undefined) [Cycloheximide]
Conditions | LDH release cytotoxicity [%]
0.03162 µM | -0.96
0.1 µM | -0.691
0.3162278 µM | -1.8
1 µM | -1.99
3.16228 µM | -1.19
10 µM | 3.47
31.6228 µM | 24
100 µM | 61.9

OC12N=C(c3ccccc3)SC1Cc1cc(Cl)ccc12 (centres undefined) [HMR1426]
Conditions | LDH release cytotoxicity [%]
0.03162 µM | 0.113
0.1 µM | -0.325
0.3162278 µM | 2.01
1 µM | 1.42
3.16228 µM | 3.44
10 µM | 4.43
31.6228 µM | 3.89
100 µM | 8.06

CCCN(CCC)c1c([N+](=O)[O-])cc(C(F)(F)F)cc1[N+](=O)[O-] [Trifluralin]
Conditions | LDH release cytotoxicity [%]
0.03162 µM | -4.73
0.1 µM | -5.31
0.3162278 µM | -5.66
1 µM | -6.43
3.16228 µM | -5.85
10 µM | -6.17
31.6228 µM | -2.1
100 µM | 66.3

CCCN(CC)CC1COC2(CCC(C(C)(C)C)CC2)O1 (centres undefined) [Spiroxamine]
Conditions | LDH release cytotoxicity [%]
0.03162 µM | -0.782
0.1 µM | -1.02
0.3162278 µM | 0.233
1 µM | -0.292
3.16228 µM | 0.829
10 µM | 0.738
31.6228 µM | 1.08
100 µM | 1.62

CC1(C)C(=O)N(Br)C(=O)N1Br [1,3-Dibromo-5,5-dimethylhydantoin]
Conditions | LDH release cytotoxicity [%]
0.03162 µM | -0.925
0.1 µM | -0.284
0.3162278 µM | -0.732
1 µM | -1.11
3.16228 µM | -0.698
10 µM | 0.338
31.6228 µM | -0.0587
100 µM | 0.735

CCOC(N)=O [Urethane]
Conditions | LDH release cytotoxicity [%]
0.03162 µM | -1.53
0.1 µM | -1.5
0.3162278 µM | -1.42
1 µM | -1.29
3.16228 µM | -1.03
10 µM | -1.2
31.6228 µM | -0.4372
100 µM | 0.365

Cc1c(-c2cccnc2)c2ccccc2n1CCCCC(=O)O
Conditions | LDH release cytotoxicity [%]
0.03162 µM | -1.92
0.1 µM | -0.948
0.3162278 µM | -2.28
1 µM | -1.9
3.16228 µM | -1.67
10 µM | -1.54
31.6228 µM | -1.64
100 µM | 4.56

Cc1cccc([N+](=O)[O-])c1C [1,2-Dimethyl-3-nitrobenzene]
Conditions | LDH release cytotoxicity [%]
0.03162 µM | 0.0499
0.1 µM | -0.56
0.3162278 µM | -0.0544
1 µM | 0.0899
3.16228 µM | -0.155
10 µM | 2.03
31.6228 µM | 1.1
100 µM | 1.87

Cc1cnc(C2=NC(=O)C(C)(C(C)C)N2)c(C(=O)O)c1 (centres undefined) [Imazapic]
Conditions | LDH release cytotoxicity [%]
0.03162 µM | -0.83
0.1 µM | -2.27
0.3162278 µM | -1.6
1 µM | -1.46
3.16228 µM | -1.69
10 µM | -0.919
31.6228 µM | -0.228
100 µM | 0.017

CCOCCOCCOCCO [2-[2-(2-Ethoxyethoxy)ethoxy]ethanol]
Conditions | LDH release cytotoxicity [%]
0.03162 µM | -2.06
0.1 µM | -1.83
0.3162278 µM | -2.87
1 µM | -2.53
3.16228 µM | -2.5
10 µM | -1.81
31.6228 µM | -1.33
100 µM | 0.397

Oc1ccccc1 [Phenol]
Conditions | LDH release cytotoxicity [%]
0.03162 µM | -1.29
0.1 µM | -1.84
0.3162278 µM | -1.69
1 µM | -1.85
3.16228 µM | -1.67
10 µM | -1.64
31.6228 µM | -1.18
100 µM | 0.202

CCCC(CCC)C(=O)O [Valproic acid]
Conditions | LDH release cytotoxicity [%]
0.031623 µM | -0.788
0.1 µM | -2.27
0.316228 µM | -1.27
1 µM | -2.73
3.16228 µM | -1.85
10 µM | -2.14
31.6228 µM | -1.38
100 µM | -0.176

Oc1ccc2ccc3cccc4ccc1c2c34 [1-Hydroxypyrene]
Conditions | LDH release cytotoxicity [%]
0.03162 µM | -0.176
0.1 µM | -0.855
0.3162278 µM | -1.52
1 µM | -1.23
3.16228 µM | -1.18
10 µM | -0.495
31.6228 µM | -0.838
100 µM | 0.111

CC(C)(C)C(=O)C(Oc1ccc(Cl)cc1)n1cncn1 (centres undefined) [Triadimefon]
Conditions | LDH release cytotoxicity [%]
0.031939 µM | -0.92
0.101 µM | -0.0413
0.31939 µM | -0.707
1.01 µM | -0.437
3.1939004 µM | 0.192
10.1 µM | -0.0819
31.939 µM | 0.1
101 µM | 0.544

CCOP(=S)(OCC)Oc1ccc2c(C)c(Cl)c(=O)oc2c1 [Coumaphos]
Conditions | LDH release cytotoxicity [%]
0.031623 µM | -0.785
0.1 µM | -3.39
0.316228 µM | -2.36
1 µM | -2.83
3.16228 µM | -3.28
10 µM | -3.57
31.6228 µM | -2.86
100 µM | 5.7

CCOC(=O)c1ccc(O)cc1 [Ethylparaben]
Conditions | LDH release cytotoxicity [%]
0.03162 µM | -0.474
0.1 µM | -1.24
0.3162278 µM | -1.05
1 µM | -1.23
3.16228 µM | -0.851
10 µM | -1.05
31.6228 µM | -0.271
100 µM | 0.163
